Data as given in PubChem BioAssay (NCI).
“And” between values parts separate entries of the source, which are not always exact repeats. Equal values may be shown once.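 Following 48 hours of exposure in 96-well plates, responses at five concentrations were used to interpolate endpoints linearly. GI50 = concentration required for 50% inhibition of growth. TGI: concentration producing complete growth inhibition.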 Where a SMILES comes first, the peptide text is derived from it. The star is where a group is joined. Palmitoyl = CCCCCCCCCCCCCCCC(=O)*

Experiments:
Test in all cases: NCI anticancer screen, dose series, 48 h
CCRF-CEM leukemia = tested on: CCRF-CEM leukemia
HS 578T breast = tested on: HS 578T breast
NCI/ADR-RES ovarian = tested on: NCI/ADR-RES ovarian
OVCAR-3 ovarian = tested on: OVCAR-3 ovarian
OVCAR-8 ovarian = tested on: OVCAR-8 ovarian
SK-MEL-2 melanoma = tested on: SK-MEL-2 melanoma
SK-MEL-5 melanoma = tested on: SK-MEL-5 melanoma
T-47D breast = tested on: T-47D breast
UACC-257 melanoma = tested on: UACC-257 melanoma
MDA-N = tested on: MDA-N

Compound	GI50 (CCRF-CEM leukemia)	TGI (CCRF-CEM leukemia)	GI50 (HS 578T breast)	TGI (HS 578T breast)	GI50 (NCI/ADR-RES ovarian)	TGI (NCI/ADR-RES ovarian)	GI50 (OVCAR-3 ovarian)	TGI (OVCAR-3 ovarian)	GI50 (OVCAR-8 ovarian)	TGI (OVCAR-8 ovarian)	GI50 (SK-MEL-2 melanoma)	TGI (SK-MEL-2 melanoma)	GI50 (SK-MEL-5 melanoma)	TGI (SK-MEL-5 melanoma)	GI50 (T-47D breast)	TGI (T-47D breast)	GI50 (UACC-257 melanoma)	TGI (UACC-257 melanoma)	TGI (MDA-N)
CCCCCCCCCCCCCCCC(=O)NC(CCCCN)C(=O)NCC(=O)NC(Cc1ccccc1)C(=O)N1CCCC1C(=O)NC(CO)C(=O)NC(Cc1ccc(O)cc1)C(=O)NC(CCCCN)C(=O)NC(CC(C)C)C(=O)NC(CCCN=C(N)N)C(=O)N1CCCC1C(=O)NCC(N)=O (stereo not drawn) (Palmitoyl-KGFPSYKLRPG-NH2; configuration not given here)	20.5 µM	40.2 µM	31.2 µM	> 100 µM	20.7 µM	42.9 µM	28.6 µM	76.5 µM	21.9 µM	52.8 µM	43.5 µM	> 100 µM	27.7 µM	> 100 µM	18 µM	45.2 µM	21.8 µM	48 µM	
O=C(CCN1CCCCC1CO)Nc1ccc2c(c1)C(=O)c1ccc(NC(=O)CCN3CCCCC3CO)cc1C2=O (stereo not drawn)		30.5 µM								39.6 µM		18.8 µM		29 µM				91.3 µM	
C=CCOn1c(C=C)nc2c(C)cccc21		3.68 µM		> 100 µM				7.51 µM		> 100 µM		4.79 µM		12.7 µM		7.25 µM		12.1 µM	11.4 µM
COc1cc([C@@H]2c3cc4c(cc3[C@@H](Nc3ccc(Cl)cc3C(=O)c3ccccc3Cl)[C@H]3COC(=O)[C@H]23)OCO4)cc(OC)c1OC						> 37.7 µM		6.4 µM		> 36.2 µM		> 100 µM				> 100 µM		> 100 µM	
Fc1nc(F)nc(-c2c3ccccc3c3n2CCS3)n1		> 100 µM						> 100 µM				> 100 µM		> 100 µM					
C=C(CCC(C(=O)O)C1CCC2(C)C3=C(CCC12C)C1(C)CCC(O)C(C)(C)C1CC3)C(C)C (stereo not drawn)				> 100 µM		70.5 µM		> 100 µM		47.2 µM		> 100 µM		> 100 µM		> 100 µM		> 100 µM	> 100 µM
C=C1C(=O)C[C@@]23CCC[C@@]12CC(O)C3 (stereo partly drawn)		56.2 µM				42.8 µM		33.7 µM		> 100 µM		73.2 µM		> 39.5 µM				52.3 µM	
CCOc1cc(C=O)ccc1O				> 100 µM		> 100 µM		> 100 µM		> 100 µM		> 100 µM		> 100 µM		> 100 µM		> 100 µM	> 100 µM
Cc1cnc2[nH]c(-c3ccccc3)cc(=O)c2c1		2.79 µM		0.0595 µM		0.0447 µM				0.629 µM		> 35.7 µM		21.2 µM		> 100 µM			> 100 µM
C=C1c2nc3ccccc3n2C=C(c2ccccc2)N1c1ccc(OC)cc1		> 100 µM				71.4 µM		> 100 µM		55 µM		> 100 µM		38.2 µM				> 100 µM	> 100 µM
C[C@@H](C[C@@H](O)[C@H](O)C(C)(C)O)[C@H]1CC=C2[C@]3(C)[C@H](O)C[C@H]4C(C)(C)[C@H](O)CC[C@]4(C)[C@H]3CC[C@@]21C		40.8 µM		50.4 µM		28.1 µM		26.2 µM		33.8 µM		34.9 µM		28.1 µM				32 µM	29.5 µM
C/C(=C/CC[C@](C)(OC1OC(CO)C(O)C(O)C1O)[C@H]1CC[C@]2(C)[C@@H]1CC[C@@H]1[C@@]3(C)CC[C@H](O)C(C)(C)[C@@H]3C[C@H](O)[C@]12C)CO (stereo partly drawn)		95.9 µM		55.3 µM		> 100 µM		79.7 µM		> 100 µM				39.8 µM		60.4 µM		55.3 µM	56.6 µM
COc1cc2cc3c4c(cc(OC)c(OC)c4c2cc1OC)CCN3C(=O)OCCBr		88.2 µM						> 100 µM		> 100 µM		> 100 µM		> 100 µM				> 100 µM	
C/C=C\C(CC(=O)O)CC(=O)NCCC1CN(S(=O)(=O)C(F)(F)F)c2ccccc21 (stereo not drawn)		> 100 µM		> 100 µM		> 100 µM		> 100 µM		> 100 µM		> 100 µM		> 100 µM				> 100 µM	> 100 µM
CCOC(=O)C(Cc1c(-c2[nH]c3ccccc3c2CC(NC(=O)CNC(C)=O)C(=O)OCC)[nH]c2ccccc12)NC(=O)CNC(C)=O (stereo not drawn)		> 100 µM		> 100 µM				> 100 µM				39.9 µM		> 100 µM				73.5 µM	> 100 µM
CCC1(O)CN(CCOC)[C@H]2C[C@@H]1C(=O)c1[nH]c3ccccc3c12 (stereo partly drawn)		> 100 µM		> 100 µM		> 100 µM		> 100 µM		> 100 µM		> 100 µM		> 100 µM				> 100 µM	> 100 µM
Cc1cccc(N2CCN(S(=O)(=O)c3ccc(Cl)cc3)C2=N)c1C						> 100 µM				> 100 µM				> 100 µM		> 100 µM		> 100 µM	> 100 µM
CC(=O)Nc1ccc(C(=O)N2N=C(C)/C(=C/c3cccc(O)c3)C2=O)cc1		> 100 µM						> 100 µM		> 100 µM		> 100 µM		> 100 µM				> 100 µM	
COc1ccccc1OC/C(N=Cc1ccncc1)=N/NC(=O)c1ccncc1		> 100 µM		> 100 µM		> 100 µM		> 100 µM		> 100 µM		> 100 µM				> 100 µM		> 100 µM	> 100 µM
COc1cccc(N2N=C3c4ccccc4-n4c(nc5ccccc54)C3C2N)c1 (stereo not drawn)				> 100 µM		> 100 µM		> 100 µM		> 100 µM		> 100 µM		> 100 µM		> 100 µM		> 100 µM	> 100 µM
COC1(OC)/C(=C(\N)C=O)NC(C)(C)N1O		> 100 µM				> 100 µM		97.5 µM		> 100 µM		> 100 µM		> 100 µM				> 100 µM	> 100 µM
Cc1ccc(Nc2nnc3n2S(=O)(=O)c2cc(C)c(Cl)cc2S3)cc1				8.67 µM		43.5 µM		4.63 µM		33.1 µM		67.1 µM		29.6 µM		> 100 µM		> 100 µM	4.33 µM
CC(=O)c1c(O)c(C)c(O)c2c1OC1=CC(=O)C(C(C)=O)C(=O)C12C (stereo not drawn)	4.26 µM and 20.7 µM	26.2 µM and 72.6 µM			4.05 µM and 16.7 µM	13.5 µM and 55.7 µM	1.05 µM and 5.74 µM	3.72 µM and 15.5 µM	4.84 µM and 14.1 µM	22.3 µM and 52.2 µM	4.42 µM and 25.4 µM	14.5 µM and 50.6 µM	3.56 µM and 16.5 µM	9.29 µM and 33.8 µM			6.02 µM and 30.4 µM	22.7 µM and 64.5 µM	
